Measurements taken from ChEMBL document CHEMBL1201862, “PubChem BioAssay data set” (2004).
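In this assay, cells in 96-well plates receive the compound at five concentrations for 48 hours. Endpoints are linearly interpolated between the surrounding concentrations. Abbreviation: GI50, concentration required for 50% inhibition of growth.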 Active and inactive are the calls of the source. Cut-off read from the data, not from the text of the source: active = GI50 up to about 1.1 µM and inactive = higher.

Key:
Assay in all cases: DTP human tumour cell line panel, 48 h
SF-268 = tested on: SF-268
M14 = tested on: M14
HOP-92 = tested on: HOP-92
SNB-19 = tested on: SNB-19
HCT-116 = tested on: HCT-116
A498 = tested on: A498
NCI-H23 = tested on: NCI-H23
T47D = tested on: T47D
K562 = tested on: K562
SK-OV-3 = tested on: SK-OV-3
HT-29 = tested on: HT-29
LOX IMVI = tested on: LOX IMVI
MOLT-4 = tested on: MOLT-4
SR = tested on: SR
SN12C = tested on: SN12C
HCT-15 = tested on: HCT-15
HL-60 = tested on: HL-60
MDA-MB-435 = tested on: MDA-MB-435
SNB-75 = tested on: SNB-75
NCI/ADR-RES = tested on: NCI/ADR-RES

Row | SMILES | GI50 (SF-268) | GI50 (M14) | GI50 (HOP-92) | GI50 (SNB-19) | GI50 (HCT-116) | GI50 (A498) | GI50 (NCI-H23) | GI50 (T47D) | GI50 (K562) | GI50 (SK-OV-3) | GI50 (HT-29) | GI50 (LOX IMVI) | GI50 (MOLT-4) | GI50 (SR) | GI50 (SN12C) | GI50 (HCT-15) | GI50 (HL-60) | GI50 (MDA-MB-435) | GI50 (SNB-75) | GI50 (NCI/ADR-RES)
1 | CCCCCCCCCc1cc(O)c(O)cc1CCCCCCCCC | > 10 µM (inactive) | > 10 µM (inactive) | > 10 µM (inactive) | > 10 µM (inactive) | > 10 µM (inactive) | > 10 µM (inactive) | > 10 µM (inactive) | > 10 µM (inactive) | > 10 µM (inactive) | > 10 µM (inactive) | > 10 µM (inactive) | > 10 µM (inactive) | > 10 µM (inactive) | > 10 µM (inactive) | > 10 µM (inactive) | > 10 µM | > 10 µM (inactive) | > 10 µM (inactive) | > 10 µM (inactive) | > 10 µM (inactive)
2 | COc1ccc2[nH]c3c(C)c4c(c(C)c3c2c1)CN(C)C=C4 | 0.175 µM (active) | 8.77 µM (inactive) | 2.79 µM (inactive) | 0.333 µM (active) | 2.61 µM (inactive) | 1.36 µM (inactive) | 0.424 µM (active) | 2.07 µM (inactive) | 3.44 µM (inactive) | 7.23 µM (inactive) | 3.93 µM (inactive) | 9.77 µM (inactive) | 0.65 µM (active) | 0.526 µM (active) | 0.164 µM (active) | 23.4 µM | 22.4 µM (inactive) | 21.2 µM (inactive) | 0.226 µM (active) | 91.8 µM (inactive)
3 | C(=N/NC1=NCCN1)/c1c2ccccc2c(/C=N\NC2=NCCN2)c2ccccc12 | 0.0738 µM (active) | 0.171 µM (active) | 0.0731 µM (active) | 0.0746 µM (active) | 0.0603 µM (active) | 0.324 µM (active) | 0.129 µM (active) | 0.11 µM (active) | 0.0664 µM (active) | 0.177 µM (active) | 0.0923 µM (active) | 0.0931 µM (active) | 0.0376 µM (active) | 0.00879 µM (active) | 0.111 µM (active) | 19.7 µM | 0.0528 µM (active) | 0.0376 µM (active) | 0.0735 µM (active) | 88.3 µM (inactive)
4 | Cc1ccnc2nc(-c3ccc(F)cc3)cc(O)c12 | 74.6 µM (inactive) | 28.4 µM (inactive) | 51.1 µM (inactive) | > 78.7 µM (inactive) | 16.9 µM (inactive) | 63.2 µM (inactive) | 75.7 µM (inactive) | > 72.6 µM (inactive) | 5.55 µM (inactive) | > 86.9 µM (inactive) | 18.7 µM (inactive) | 26.2 µM (inactive) | > 71.4 µM (inactive) | 3.82 µM (inactive) | > 100 µM (inactive) | 5.08 µM | 5.97 µM (inactive) | 3.15 µM (inactive) | 29.6 µM (inactive) | > 86.3 µM (inactive)
5 | C/C(=N/NC(=S)Nc1ccccc1C)c1ccccn1 | 0.14 µM (active) | < 0.0258 µM (active) | 1.09 µM (active) | 2.43 µM (inactive) | < 0.0152 µM (active) | 1.67 µM (inactive) | < 0.0189 µM (active) | < 0.0475 µM (active) | < 0.0145 µM (active) | 0.052 µM (active) | 0.0726 µM (active) | < 0.0149 µM (active) | 0.0175 µM (active) | 0.0229 µM (active) | 0.269 µM (active) | 0.0228 µM | 0.0143 µM (active) | 0.632 µM (active) | 0.583 µM (active) | 0.0322 µM (active)
